The text below walks through data of publication PMC4022671, “Characterization of Mannitol-2-Dehydrogenase in Saccharina japonica: Evidence for a New Polyol-Specific Long-Chain Dehydrogenases/Reductase” (PLoS ONE, 2014).

The target of the assay is T1, SjM2DH (mannitol-2-dehydrogenase) (Saccharina japonica, UniProt R9UHL6).
T1 construct: assayed in cell-free extract
Put plainly: NADH depletion at OD340, crude E. coli extract with recombinant enzyme. Format: biochemical. The note with it: NADH 1 mM, fructose 100 mM, 100 mM Tris-HCl pH 7.5, 35 °C.

T1 sequence (R9UHL6 entry or part of it): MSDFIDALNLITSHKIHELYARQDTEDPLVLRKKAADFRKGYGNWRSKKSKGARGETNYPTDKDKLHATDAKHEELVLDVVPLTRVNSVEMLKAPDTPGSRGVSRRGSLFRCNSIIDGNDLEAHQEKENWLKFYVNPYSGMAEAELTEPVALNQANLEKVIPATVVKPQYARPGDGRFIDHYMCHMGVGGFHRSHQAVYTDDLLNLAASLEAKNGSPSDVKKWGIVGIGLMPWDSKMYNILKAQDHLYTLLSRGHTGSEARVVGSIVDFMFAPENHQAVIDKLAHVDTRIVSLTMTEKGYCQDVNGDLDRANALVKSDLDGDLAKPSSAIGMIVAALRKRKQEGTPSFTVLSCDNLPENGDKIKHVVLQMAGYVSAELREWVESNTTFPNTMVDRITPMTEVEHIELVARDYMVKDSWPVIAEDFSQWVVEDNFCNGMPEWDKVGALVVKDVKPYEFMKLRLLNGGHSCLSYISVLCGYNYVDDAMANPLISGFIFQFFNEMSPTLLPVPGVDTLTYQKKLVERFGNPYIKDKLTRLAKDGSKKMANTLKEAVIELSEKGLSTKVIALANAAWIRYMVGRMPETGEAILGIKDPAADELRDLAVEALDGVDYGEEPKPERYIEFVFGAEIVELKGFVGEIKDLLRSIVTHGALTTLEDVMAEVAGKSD

With `OCC1(O)OC[C@@H](O)[C@@H](O)[C@@H]1O` (stereo partly drawn) [D-fructose], the “NADH depletion at OD340, crude E. coli extract with recombinant enzyme” value is on record as “When D-fructose was applied as the substrate, a depletion of NADH was detected”. With `NC(=O)C1=CN([C@@H]2O[C@H](COP(=O)(O)OP(=O)(O)OC[C@H]3O[C@@H](n4cnc5c(N)ncnc54)[C@H](O)[C@@H]3O)[C@@H](O)[C@H]2O)C=CC1` [NADH] the entry was “reduction of fructose by recombinant SjM2DH exclusively uses NADH as cofactor”.
